Earlier results, collected in patent US10945968B2, “Memantine transdermal delivery systems” (Corium, Inc., priority 2016, dated 2021).

Conditions: DRUGBANK Accession No. DB01043

## C[C@]12CC3C[C@](C)(C1)C[C@@](N)(C3)C2 [Memantine, 3,5-dimethyladamantan-1-amine]
  Log P reported range: 3.31-2.07
